# Test results taken from patent US6239131A, “1,5 Benzodiazepine derivatives” (Zeria Pharmaceutical Co., Ltd., priority 1996, dated 2001).
# Read-outs that look alike come from different tables or passages of the source.
# How the values were obtained:
# [1] = tested on: pentagastrin-stimulated acid secretion; assay: Measurement of Inhibition of Pentagastrin-stimulated Acid Secretion; type: in vivo, male Sprague-Dawley (SD)-strain rats; conditions: intraduodenal, rat, acid output from 1 to 4 hours after administration, pentagastrin 15 μg/kg/hr
# Description: Male Sprague-Dawley (SD)-strain rats were used. Each rat was operated to ligate the pylorus, and equip with a duodenal catheter and gastric fistula under a ether anesthesia. After the operation, each rat was placed in a Bollman-type cage and continuously infused pentagastrin (15 μg/kg/hr) through the tail vein. Test compounds were suspended in 0.5% aqueous sodium carboxymethylcellulose (which hereinafter be abbreviated as "vehicle"). Vehicle or test compound was administered through the intraduodenal catheter 1 hour after the beginning of pentagastrin infusion. Acidity of the collected gastric juice was measured by an automatic titillation device. Acid output was determined by multiplying the volume by the acidity of gastric juice. […] [formula]
# [2] = target: T1, CCK-B receptors (Cavia porcellus, UniProt H0VZC5); assay: Measurement of Binding Affinity for CCK-B Receptors; set-up: species or system Hartley-strain guinea pig
# T1 construct: Cerebral cortices were removed from Hartley-strain guinea pigs, the cerebral cortices were homogenized; from tissue; host or cells: cerebral cortex of Hartley-strain guinea pigs, crude membrane pellet
# T1 sequence (H0VZC5 1-426): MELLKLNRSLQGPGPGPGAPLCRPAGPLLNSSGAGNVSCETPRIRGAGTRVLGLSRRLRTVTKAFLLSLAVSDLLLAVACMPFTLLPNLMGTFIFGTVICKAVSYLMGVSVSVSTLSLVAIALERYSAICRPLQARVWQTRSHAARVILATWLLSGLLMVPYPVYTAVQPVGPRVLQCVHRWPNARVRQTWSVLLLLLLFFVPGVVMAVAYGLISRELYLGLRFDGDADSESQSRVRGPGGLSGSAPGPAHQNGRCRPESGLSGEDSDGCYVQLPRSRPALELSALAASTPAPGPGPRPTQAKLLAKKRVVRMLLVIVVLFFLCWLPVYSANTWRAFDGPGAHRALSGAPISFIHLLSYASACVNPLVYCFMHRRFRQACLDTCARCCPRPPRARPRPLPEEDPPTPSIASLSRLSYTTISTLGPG
# [3] = target: T2, CCK-A receptors (Cavia porcellus, UniProt Q63931); assay: Measurement of Binding Affinity for CCK-A Receptors; set-up: species or system Hartley-strain guinea pig; conditions: inhibition of specific [3H]L-364,718 (0.2 nM) binding; guinea pig pancreas; 25° C., 2 hours; pH 6.5
# T2 construct: Pancreases were removed from Hartley-strain guinea pigs, the pancreases were homogenized; from tissue; host or cells: pancreas of Hartley-strain guinea pigs, crude membrane pellet
# T2 sequence (Q63931 1-430): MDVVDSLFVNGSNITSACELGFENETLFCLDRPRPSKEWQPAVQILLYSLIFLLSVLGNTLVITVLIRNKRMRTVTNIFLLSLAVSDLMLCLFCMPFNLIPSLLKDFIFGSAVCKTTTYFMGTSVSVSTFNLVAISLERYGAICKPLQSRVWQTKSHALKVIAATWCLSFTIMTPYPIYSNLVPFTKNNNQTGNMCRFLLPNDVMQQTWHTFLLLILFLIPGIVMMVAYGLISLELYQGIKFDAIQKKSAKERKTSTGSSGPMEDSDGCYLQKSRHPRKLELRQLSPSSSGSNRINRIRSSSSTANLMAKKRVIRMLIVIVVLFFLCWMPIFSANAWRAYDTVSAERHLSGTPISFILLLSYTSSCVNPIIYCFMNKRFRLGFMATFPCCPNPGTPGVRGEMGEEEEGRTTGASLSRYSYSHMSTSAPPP
# Description: Pancreases were removed from Hartley-strain guinea pigs, the pancreases were homogenized in 40 volumes of 10 mM PIPES buffer (pH 6.5, which hereinafter be abbreviated as "solvent") containing 1 mM EGTA, 30 mM MgCl2, 0.02% bacitracin, 0.02% soybean trypsin inhibitor and 0.3 M sucrose. The homogenate was filtrated through gauze and centrifuged at 50000×g for 10 minutes. Solvent was added to the pellet and recentrifuged as above. The final pellet thus obtained was homogenized in 40 volumes of solvent and used as the receptor preparation.
# Binding assay was measured as follows. Fifty μl of [^3 H]L-364, 718 (at the final concentration of 0.2 nM) and 900 μl of the receptor preparation (50 μg protein/tube) were added to 50 μl of solvent, or L-364, 718 (1 μM) or a test compound. This mixture was incubated at 25° C. for 2 hours. After the reaction, the mixture was filtrated through Whatman GF/B filter presoaked in 0.1% BSA (bovine serum albumin). The filter was washed with 3 ml of ice-cold 10 mM PIPES buffer (pH 6.5) three times, immediately after the filtration. The filter was soaked in the ACS-II scintillation cocktail for one day and radioactivity was measured using a liquid scintillation counter. Non-specific binding was defined as the radioactivity in the presence of 1 μM L-364, 718. Specific binding was defined as the difference between total binding (used solvent without L-364, 718) and non-specific binding. lnhibitor dissociation constant (Ki) of each test compound was determined from the inhibition of specific [^3 H]L-364, 718 binding.
# [4] = inhibition of specific [3H]CCK-8 (1.0 nM) binding, guinea pig cerebral cortex, 25° C., 2 hours, pH 6.5, read-out: Ki (CCK-B receptors)
SMILES,inhibition in vivo at 3 mg/kg [1],"Ki [2, 4]",Ki [3],inhibition in vivo at 30 mg/kg [1],inhibition in vivo at 1 mg/kg [1],Ki [2]
"CC(C)(C)C(=O)CN1C(=O)C(NC(=O)Nc2cccc(SCC(=O)O)c2)CN(c2ccccc2)c2ccccc21 (stereo not drawn) [Example 33, 3-[3-(1-tert-butylcarbonylmethyl-2-oxo-5-phenyl-1,3,4,5-tetrahydro-2H-1,5-benzodiazepin-3-yl)ureido]phenylthioacetic acid]",77.2%,0.14 nM,244 nM,,,
"Cc1ccc2c(c1)N(CC(=O)c1ccccc1C)C(=O)C(NC(=O)Nc1cccc(C(=O)O)c1)CN2C(=O)C1CCCC1 (stereo not drawn) [Example 87, 3-[3-[1-(2-toluoylmethyl)-2-oxo-5-cyclopentylcarbonyl-8-methyl-1,3,4,5-tetrahydro-2H-1,5-benzodiazepin-3-yl]ureido]benzoic acid]",,1.39 nM,120 nM,80.1%,,
"CC(C)(C)C(=O)CN1C(=O)C(NC(=O)Nc2cccc(C(=O)O)c2)CN(c2ccccc2F)c2ccccc21 (stereo not drawn) [Example 101, 3-[3-[1-tert-butylcarbonylmethyl-2-oxo-5-(2-fluorophenyl)-1,3,4,5-tetrahydro-2H-1,5-benzodiazepin-3-yl]ureido]benzoic acid]",78%,1.13 nM,472 nM,,,
"Cc1ccc2c(c1)N(CC(=O)c1ccccc1C)C(=O)C(NC(=O)Nc1cccc(C(=O)O)c1)CN2C(=O)c1cccs1 (stereo not drawn) [Example 104, 3-[3-[1-(2-toluoylmethyl)-2-oxo-5-(2-thenoyl)-8-methyl-1,3,4,5-tetrahydro-2H-1,5-benzodiazepin-3-yl]ureido]benzoic acid]",,0.59 nM,130 nM,,58%,
"Cc1ccc2c(c1)N(CC(=O)c1ccccc1C)C(=O)C(NC(=O)Nc1cccc(C(=O)O)c1)CN2C(=O)CC(C)(C)C (stereo not drawn) [Example 109, 3-[3-[1-(2-toluoylmethyl)-2-oxo-5-(3,3-dimethylbutanoyl)-8-methyl-1,3,4,5-tetrahydro-2H-1,5-benzodiazepin-3-yl]ureido]benzoic acid]",,1.81 nM,346 nM,,54%,
"Cc1ccc2c(c1)N(CC(=O)c1ccccc1C)C(=O)C(NC(=O)Nc1ccc(C)c(C(=O)O)c1)CN2C(=O)CC(C)(C)C (stereo not drawn) [Example 120, 5-[3-[1-(2-toluoylmethyl)-2-oxo-5-(3,3-dimethylbutanoyl)-8-methyl-1,3,4,5-tetrahydro-2H-1,5-benzodiazepin-3-yl]ureido]-2-methylbenzoic acid]",,0.75 nM,506 nM,88.3%,,
"Cc1cccc(NC(=O)N[C@@H]2N=C(c3ccccc3)c3ccccc3N(C)C2=O)c1 [L-365, 260, reference compound]",,,0.64 nM,46.5%,,24.6 nM
